{"source": "paper PMC6858493", "about": "(ACS chemical biology, 2019)", "key": {"[1]": {"test_system": "E. coli", "assay": "E. coli exponential growth rate", "format": "cell-based, Escherichia coli", "details": "100 μM compound"}, "[2]": {"target": "Lon (Escherichia coli, UniProt P0A9M0)", "sequence (P0A9M0 whole entry)": "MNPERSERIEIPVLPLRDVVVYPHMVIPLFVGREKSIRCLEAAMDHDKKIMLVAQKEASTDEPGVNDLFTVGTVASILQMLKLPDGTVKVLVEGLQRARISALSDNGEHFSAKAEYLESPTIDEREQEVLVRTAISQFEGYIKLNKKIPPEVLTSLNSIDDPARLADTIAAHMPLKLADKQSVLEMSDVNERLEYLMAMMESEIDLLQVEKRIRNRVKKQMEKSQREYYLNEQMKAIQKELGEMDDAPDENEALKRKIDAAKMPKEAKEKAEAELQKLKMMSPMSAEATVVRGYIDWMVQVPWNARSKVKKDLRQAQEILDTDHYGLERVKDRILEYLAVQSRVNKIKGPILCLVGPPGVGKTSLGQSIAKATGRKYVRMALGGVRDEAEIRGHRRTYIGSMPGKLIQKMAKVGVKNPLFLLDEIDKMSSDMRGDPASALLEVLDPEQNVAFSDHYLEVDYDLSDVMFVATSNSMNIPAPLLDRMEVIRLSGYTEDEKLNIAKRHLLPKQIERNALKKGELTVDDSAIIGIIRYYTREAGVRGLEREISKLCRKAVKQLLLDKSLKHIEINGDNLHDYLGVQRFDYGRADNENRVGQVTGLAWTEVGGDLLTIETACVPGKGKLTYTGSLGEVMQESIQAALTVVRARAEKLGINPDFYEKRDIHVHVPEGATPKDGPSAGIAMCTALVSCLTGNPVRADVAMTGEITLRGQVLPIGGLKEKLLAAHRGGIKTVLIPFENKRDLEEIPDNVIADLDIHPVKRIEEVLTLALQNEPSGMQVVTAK", "assay": "biochemical", "format": "biochemical, E. coli", "details": "for inhibition of recombinant Lon: with varied pre-incubation time"}, "[3]": {"test_system": "RAW 264.7 murine macrophages", "assay": "cells", "format": "cell-based", "details": "Mus musculus, RAW264.7, 24 h, read-out: EC50 (cell killing)"}, "[4]": {"target": "h20S (β2) (Homo sapiens, UniProt Q99436)", "assay": "h20S β2 subunit inhibition assay", "format": "biochemical", "details": "60 min enzyme-inhibitor pre-incubation; mean ± SD, n=3"}, "[5]": {"test_system": "E. coli", "assay": "Ciprofloxacin MIC measurement", "format": "cell-based, Escherichia coli", "details": "wild-type cells, 100 μm 11"}, "[6]": {"target": "h20S (β1) (Homo sapiens, UniProt P28072)", "assay": "h20S β1 subunit inhibition assay", "format": "biochemical"}, "[7]": {"test_system": "E. coli", "assay": "UV-induced filamentation of E. coli", "format": "cell-based, Escherichia coli"}, "[8]": {"target": "h20S (β5) (Homo sapiens, UniProt P28074)", "assay": "h20S β5 subunit inhibition assay", "format": "biochemical"}, "[9]": {"test_system": "E. coli", "assay": "Ciprofloxacin persister cell quantification", "format": "cell-based, Escherichia coli"}, "[10]": {"test_system": "E. coli Lon", "details": "cited from earlier work"}, "[11]": {"test_system": "Lon", "details": "ratio of normalized cleavage rates at 25 μM substrate"}, "[12]": {"details": "60 min enzyme-inhibitor pre-incubation, mean ± SD, n=3"}}, "data": [{"molecule": "CC(C)C[C@H](NC(=O)[C@H](Cc1ccccc1)NC(=O)c1cnccn1)B(O)O", "note": "[BZ, bortezomib, reference compound]", "values": [{"measurement": "effect on exponential growth rates", "setting": "[1]", "result": "nor treatment with 100 μM 11 or BZ had an effect"}, {"measurement": "IC50", "setting": "[2]", "result": "500 ± 230", "unit": "nM"}, {"measurement": "inhibition of recombinant Lon", "setting": "[2]", "result": "potent, time-dependent inhibition"}, {"measurement": "EC50", "setting": "[3]", "result": 160, "unit": "nM"}]}, {"molecule": "CC(C)C[C@H](NC(=O)[C@H](CC(C)(C)C)NC(=O)[C@H](CCCCNC(=N)N)NC(=O)c1cnccn1)B(O)O", "note": "[compound 11, Pyz-hArg-nptGly-Leu-B(OH)2]", "values": [{"measurement": "effect on exponential growth rates", "setting": "[1]", "result": "nor treatment with 100 μM 11 or BZ had an effect"}, {"measurement": "IC50", "setting": "[4]", "result": "430 ± 40", "unit": "nM"}, {"measurement": "Relative activity (ratio of BZ IC50 to 11 IC50)", "setting": "[2]; Lon", "result": 1.2}, {"measurement": "kinact/KI relative to BZ", "setting": "[2]; time-dependent inhibition of Lon", "result": "two-fold higher"}, {"measurement": "inhibition of recombinant Lon", "setting": "[2]", "result": "potent, time-dependent inhibition"}, {"measurement": "effect on MIC of ciprofloxacin", "setting": "[5]", "result": "nor treatment of wild-type cells with 100 μm 11 altered the overall MIC"}, {"measurement": "IC50", "setting": "[6]; [12]", "result": "1900 ± 140", "unit": "nM"}, {"measurement": "Relative activity (ratio of BZ IC50 to 11 IC50)", "setting": "[6]; h20S β1", "result": 0.2}, {"measurement": "filamentation after UV stress", "setting": "[7]; sulA mutant strain", "result": "no effect on filamentation"}, {"measurement": "filamentation after UV stress", "setting": "[7]; wild-type, treatment during 6 h outgrowth following UV-stress", "result": "dose-dependent increase in filamentation"}, {"measurement": "IC50", "setting": "[8]; [12]", "result": "290 ± 6.4", "unit": "nM"}, {"measurement": "Relative activity (ratio of BZ IC50 to 11 IC50)", "setting": "[8]; h20S β5", "result": 0.1}, {"measurement": "time course of killing", "setting": "[9]; co-treatment with ciprofloxacin and 100 μM 11", "result": "faster death than wild type"}, {"measurement": "fraction of cells that tolerated ciprofloxacin", "setting": "[9]; sulA mutant strain", "result": "this effect was abrogated"}, {"measurement": "fraction of cells that tolerated ciprofloxacin", "setting": "[9]; wild-type cells, co-treatment with 10 μg/mL ciprofloxacin, LB and M9 media", "result": "statistically-significant reduction"}]}, {"molecule": "CN(C)c1cccc2c(S(=O)(=O)F)cccc12", "note": "[dansyl fluoride]", "values": [{"measurement": "inhibition of E. coli Lon", "setting": "[10]", "result": "only at mM concentrations"}]}, {"molecule": "Mo-Leu-Leu-Phe-ACC [compound 1]", "values": [{"measurement": "selectivity of cleavage, Lon vs h20S", "setting": "[11]", "result": "cleaved equally effectively by both Lon and the proteasome"}]}]}
